The values that follow come from patent US10980850B2, “Use of IAP inhibitor and oncolytic virus in preparation of anti-tumor drug” (Guangzhou Virotech Pharmaceutical Co., Ltd., priority 2016, dated 2021).

In one test the test system is pancreatic cancer. Conditions: 10 μmol/L alone; cells without drugs 17%; cited from earlier work.
For test [1], the system named is Caspase 3/7, 8, and 9. The experiment in a line: Caspase activity (chemiluminescence/MTT) in HCT116 cells. The class given is cell-based, human. Conditions: M1 1 MOI, LCL161 5 μM, 72 hours, vs control. Here is the method:
(§1) The cells in the exponential growth phase were selected and added into a DMEM complete culture medium (containing 10% fetal bovine serum and 1% penicillin/streptomycin (Life Technologies)) to prepare a cell suspension. The cells were inoculated into a 96-well culture plate at a density of 4×10^3/well. After 12 hours, the cells were completely adherent to the walls of the culture plate. In this experiment, cultures were divided into a control group, a single drug group (using LCL161 alone), a group infected with M1, and a group treated with combined LCL161/M1. The doses used were as follows: cells were infected with M1 at 1 MOI ([…]) or 0.1 MOI (Huh7 cells), and LCL161 was added at a concentration of 5 μM. Each of the above mentioned treatment groups was divided in four for detecting MTT and the activities of Caspase 3/7, 8 and 9. 72 hours after treatment, the reagent for detecting Caspase3/7, 8 and 9 was added into each well on the basis of the volume, and the resulting wells were placed into the incubator for a further half hour. The liquid was absorbed into the opaque 96 well plate for measuring the chemical luminous intensity by a microplate reader. Meanwhile, MTT was detected to calculate the survival rate of the cells. The activity of Caspase was standardized by the ratio of chemiluminescent value to MTT value.

Test [2] relates to transplantable tumor of Huh7 cancer strain. The experiment in a line: Transplantable tumor of Huh7 in nude mice. The class given is in vivo, BALB/c nude mice. Conditions: Huh7 tumors; LCL161 i.p. 20 mg/kg/d; M1 tail vein 5×10^5 PFU/time; four injections day 10-13. As for the experimental part:
(§2) The present experiment was performed as a randomized and single-blinded trial. 5×10^6 HCT116 or 1×10^7 Huh7 cells were subcutaneously injected into dorsa of 4-week-aged BALB/c nude mice. When the size of tumors reached 50 mm^3, the mice were divided into groups, including an untreated control group (Control), a group treated with LCL161 alone (i.p. 20 mg/kg/d), a group infected with M1 alone (transplantable tumor of HCT116 cancer strain was injected with M1 virus via tail vein (2×10^6 PFU/time), and transplantable tumor of Huh7 cancer strain was injected with M1 virus via tail vein (5×10^5 PFU/time)) and a group treated with LCL161/M1 (LCL161 and M1 virus were administered in the same way at the same dose), and four injections was performed continuously (for HCT116, injection was conducted on day 5, day 6, day 7, and day 8; for Huh7, injection was conducted on day 10, day 11, day 12, and day 13). The weight, length and width of the tumor were measured every two days, and the volume of the tumor was calculated according to the formula: (length×width^2)/2. After measuring the volume of the tumor, one way ANOVA statistics was carried out, wherein *** indicates p<0.001, ** indicates p<0.01, and * indicates p<0.05.

Test [3] deals with Caspase 3/7, 8, and 9. The experiment in a line: Caspase activity (chemiluminescence/MTT) in Huh7 cells. The class given is cell-based, human. Conditions: M1 0.1 MOI, LCL161 5 μM, 72 hours, vs control. Here is the method: as §1
The test system of test [4] is transplantable tumor of HCT116 cancer strain. The experiment in a line: Transplantable tumor of HCT116 in nude mice. The settings on record: HCT116 tumors. The class given is in vivo, BALB/c nude mice. As for the experimental part:
as §2

Test [5] concerns human colorectal cancer cell line HCT116. The experiment in a line: MTT survival rate of HCT116 cells (LCL161/Birinapant, M1 virus). Conditions: MTT 72 hours, 5 μM LCL161, MOI of M1 not stated (FIG. 2(A)). The class given is cell-based. Here is the method: a) Inoculation of cells and administration treatment: cells in the exponential growth phase were selected and added into a DMEM complete culture medium (containing 10% fetal bovine serum and 1% penicillin/streptomycin (Life Technologies)) to prepare a cell suspension. The cells were inoculated into a 96-well culture plate at a density of 4×10^3/well. After 12 hours, the cells were completely adherent to the wells. The experiment was divided into a control group and a single drug group (using 5 μM LCL161 or Birinapant alone), a group infected with M1 and a group treated with LCL161/M1 or Birinapant/M1. In M1-containing assays, virus was provided at varying MOI. The concentration of LCL161 or Birinapant was 5 μM • b) Reaction of MTT with succinate dehydrogenase in the cells: 72 hours after culture, 20 μl MTT (5 mg/ml) was added into each well, and was incubated for a further 4 hours. After incubation, granular blue and purple formazan crystals formed in the living cells were observed by microscopic examination. • c) Dissolution of formazan particles: those cultures having cells with formazan crystals were further processed as follows. […] The optical density (OD value) of each well was detected in an enzyme linked detector at a wavelength of 570 nm. […] The calculated survival rate of the cells=OD value of the drug treatment group/OD value of the control group×100%. […]

Regarding `Nc1ccn([C@@H]2O[C@H](CO)[C@@H](O)C2(F)F)c(=O)n1` [Gemcitabine], the apoptosis rate with pancreatic cancer is recorded as 58%.

As for `CN[C@@H](C)C(=O)N[C@H](C(=O)N1CCC[C@H]1c1nc(C(=O)c2ccc(F)cc2)cs1)C1CCCCC1` [LCL161], the “activities of Caspase 3/7, 8, and 9” value with Caspase 3/7, 8, and 9 [1] is listed as “only slightly up-regulated”; in the test on Caspase 3/7, 8, and 9 [3] it was “only slightly up-regulated”. For the same compound, the “reduction in tumor volume as compared with the control group” value in test [2] amounted to 18.1%; in test [4] (LCL161 i.p. 20 mg/kg/d, M1 tail vein 2×10^6 PFU/time, four injections day 5-8), 29.15%. Further, the “tumor volume (in words)” value in test [4] (same dosing, vs control group) is “only a slight reduction in tumor volume”. For the same compound, the survival rate in test [5] is listed as 92.6%.
